Target: T1, human M2 receptor (Homo sapiens, UniProt P08172)
T1 sequence (P08172 1-466): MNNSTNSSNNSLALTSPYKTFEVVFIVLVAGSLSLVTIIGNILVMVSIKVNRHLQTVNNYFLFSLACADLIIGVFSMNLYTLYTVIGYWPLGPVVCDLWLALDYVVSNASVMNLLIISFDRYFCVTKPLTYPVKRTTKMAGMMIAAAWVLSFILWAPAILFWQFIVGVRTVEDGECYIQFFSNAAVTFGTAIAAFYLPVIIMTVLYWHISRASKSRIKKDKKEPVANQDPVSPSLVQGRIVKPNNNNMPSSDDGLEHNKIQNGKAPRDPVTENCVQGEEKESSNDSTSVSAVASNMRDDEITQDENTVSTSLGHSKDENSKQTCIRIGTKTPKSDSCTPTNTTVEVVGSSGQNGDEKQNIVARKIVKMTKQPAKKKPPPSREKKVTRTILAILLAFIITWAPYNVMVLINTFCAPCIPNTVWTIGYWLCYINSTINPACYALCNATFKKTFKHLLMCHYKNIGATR
Details: M2-GIRK1/4 reporter cells; for EC50: Receptor activity EC50, allosteric potency at EC20 acetylcholine, in some cases mean of two or more determinations; for Emax: read-out: Efficiency, boosting of the acetylcholine effect at EC20 acetylcholine concentration; for Efficiency: boosting of the acetylcholine effect at EC20 acetylcholine concentration

Row | SMILES | EC50 [nM] | Emax [%] | Efficiency [%]
1 | CCC(NC(=O)c1cn(-c2ccc(F)cc2F)c2nc(N3C[C@@H](O)CC3=O)ccc2c1=O)C(F)(F)C(F)(F)F (mixture of isomers) [Example 556, 1-(2,4-Difluorophenyl)-7-[(4S)-4-hydroxy-2-oxopyrrolidin-1-yl]-4-oxo-N-[1,1,1,2,2-pentafluoropentan-3-yl]-1,4-dihydro-1,8-naphthyridine-3-carboxamide] | 10 | 100 | –
2 | O=C(NC(c1ccccc1Cl)C(F)(F)F)c1cn(-c2c(F)cc(F)cc2F)c2nc(N3C[C@@H](O)[C@H](O)C3)ccc2c1=O (mixture of isomers) [Example 560, N-[1-(2-Chlorophenyl)-2,2,2-trifluoroethyl]-7-[(3R,4R)-3,4-dihydroxypyrrolidin-1-yl]-4-oxo-1-(2,4,6-trifluorophenyl)-1,4-dihydro-1,8-naphthyridine-3-carboxamide] | 17 | 100 | –
3 | O=C(NC(c1ccccc1Cl)C(F)(F)F)c1cn(-c2c(F)cc(F)cc2F)c2nc(N3CCNC3=O)ccc2c1=O (racemic) [Example 563, N-[1-(2-Chlorophenyl)-2,2,2-trifluoroethyl]-4-oxo-7-(2-oxoimidazolidin-1-yl)-1-(2,4,6-trifluorophenyl)-1,4-dihydro-1,8-naphthyridine-3-carboxamide] | 20 | 100 | –
4 | O=C(NC(c1ccccc1Cl)C(F)(F)F)c1cn(-c2c(F)cc(F)cc2F)c2nc(N3CCNC3=O)ccc2c1=O (racemic) [Example 565, N-[1-(2-Chlorophenyl)-2,2,2-trifluoroethyl]-4-oxo-7-(2-oxoimidazolidin-1-yl)-1-(2,4,6-trifluorophenyl)-1,4-dihydro-1,8-naphthyridine-3-carboxamide] | – | – | 99.5
5 | CC(C)(CC(F)(F)F)NC(=O)c1cn(-c2c(F)cc(F)cc2F)c2nc(N3CC(O)C4(CC4)C3)ccc2c1=O (racemic) [Example 569, 7-[7-Hydroxy-5-azaspiro[2.4]hept-5-yl]-4-oxo-N-(4,4,4-trifluoro-2-methylbutan-2-yl)-1-(2,4,6-trifluorophenyl)-1,4-dihydro-1,8-naphthyridine-3-carboxamide] | 49 | 100 | –
6 | CCC(COC(F)(F)F)NC(=O)c1cn(-c2c(F)cc(F)cc2F)c2nc(N3C[C@@H](O)[C@H](O)C3)ccc2c1=O (mixture of isomers) [Example 576, 7-[(3R,4R)-3,4-Dihydroxypyrrolidin-1-yl]-4-oxo-N-[1-(trifluoromethoxy)butan-2-yl]-1-(2,4,6-trifluorophenyl)-1,4-dihydro-1,8-naphthyridine-3-carboxamide] | 13 | 99.5 | –
7 | COC1CN(c2ccc3c(=O)c(C(=O)N[C@@H](C4CC4)C(F)(F)F)cn(-c4c(F)cc(F)cc4F)c3n2)CC1O (mixture of isomers) [Example 582, N-[(1 S)-1-Cyclopropyl-2,2,2-trifluoroethyl]-7-[trans-3-hydroxy-4-methoxypyrrolidin-1-yl]-4-oxo-1-(2,4,6-trifluorophenyl)-1,4-dihydro-1,8-naphthyridine-3-carboxamide] | 14 | 100 | –
8 | O=C(NC(CC(F)(F)F)C(F)(F)F)c1cn(-c2c(F)cc(F)cc2F)c2nc(N3CCNC3=O)ccc2c1=O (racemic) [Example 586, N-[1,1,1,4,4,4-Hexafluorobutan-2-yl]-4-oxo-7-(2-oxoimidazolidin-1-yl)-1-(2,4,6-trifluorophenyl)-1,4-dihydro-1,8-naphthyridine-3-carboxamide] | 15 | 100 | –
9 | O=C(NC(CC(F)(F)F)C(F)(F)F)c1cn(-c2c(F)cc(F)cc2F)c2nc(N3CCNC3=O)ccc2c1=O (racemic) [Example 587, N-[1,1,1,4,4,4-Hexafluorobutan-2-yl]-4-oxo-7-(2-oxoimidazolidin-1-yl)-1-(2,4,6-trifluorophenyl)-1,4-dihydro-1,8-naphthyridine-3-carboxamide] | 14 | – | 93.5

Reference: US20190367516A1 (Bayer Pharma Aktiengesellschaft, priority 2015, published 2019)
